This is an account of results in PubChem BioAssay AID330 (DTP/NCI, 2004).

“And” between values parts separate entries of the source, which are not always exact repeats. Identical values can stand only once. Toxic doses and inconclusive results are not listed.

The subject of the test is P388 leukemia ip, CD2F1 mice, survival T/C. In words: NCI In Vivo Anticancer Drug Screen. Data for tumor model P388 Leukemia (intraperitoneal) in CD2F1 (CDF1) mice. The settings on record: endpoint: median survival time, higher = longer survival. The method, boiled down:
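Mice carrying the transplanted tumor received test compound or vehicle. Survival was recorded in each group, and the value is the treated-group measurement divided by that of the vehicle-treated control group.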

Setting [1] is: dose: 12.5 mg/kg/injection, schedule: Q01DX009 (ip), vehicle: saline.
The mark [2] stands for this setting: dose: 25.0 mg/kg/injection, schedule: Q01DX009 (ip), vehicle: saline.
Setting [3] is: dose: 50.0 mg/kg/injection, schedule: Q01DX009 (ip), vehicle: saline.
Setting [4] is: dose: 100.0 mg/kg/injection, schedule: Q01DX009 (ip), vehicle: saline.
Setting [5] is: dose: 50.0 mg/kg/injection, schedule: Q01DX009 (ip), vehicle: water.
Where [6] appears, read: dose: 50.0 mg/kg/injection, schedule: Q01DX009 (ip), vehicle: saline with Tween-80.
The mark [7] stands for this setting: dose: 200.0 mg/kg/injection, schedule: Q01DX009 (ip), vehicle: saline.
The mark [8] stands for this setting: dose: 60.0 mg/kg/injection, schedule: Q01DX005 (ip), vehicle: saline with Tween-80.
The mark [9] stands for this setting: dose: 120.0 mg/kg/injection, schedule: Q01DX005 (ip), vehicle: saline with Tween-80.
Where [10] appears, read: dose: 240.0 mg/kg/injection, schedule: Q01DX005 (ip), vehicle: saline with Tween-80.
[11] abbreviates: dose: 60.0 mg/kg/injection, schedule: Q01DX005 (ip), vehicle: saline.
The mark [12] stands for this setting: dose: 120.0 mg/kg/injection, schedule: Q01DX005 (ip), vehicle: saline.
The mark [13] stands for this setting: dose: 50.0 mg/kg/injection, schedule: Q01DX005 (ip), vehicle: saline with Tween-80.
The mark [14] stands for this setting: dose: 100.0 mg/kg/injection, schedule: Q01DX005 (ip), vehicle: saline with Tween-80.
The mark [15] stands for this setting: dose: 200.0 mg/kg/injection, schedule: Q01DX005 (ip), vehicle: saline with Tween-80.

In the case of `O=[N+]([O-])c1ccc(Sc2ccccn2)nc1Sc1ccccn1`, the T/C by setting is: (dose: 0.79 mg/kg/injection, schedule: Q01DX009 (ip), vehicle: saline with Tween-80) 100 % of control; (dose: 1.56 mg/kg/injection, schedule: Q01DX009 (ip), vehicle: saline with Tween-80) 104 % of control; (dose: 3.12 mg/kg/injection, schedule: Q01DX009 (ip), vehicle: saline with Tween-80) 100 % of control; (dose: 200.0 mg/kg/injection, schedule: Q01DX009 (ip), vehicle: saline with Tween-80) 92 % of control.
As to `C=Cn1ccnc1`, the T/C was 100 % of control (dose: 6.25 mg/kg/injection, schedule: Q01DX009 (ip), vehicle: saline); 103 % of control and 123 % of control under setting [1]; 103 % of control under setting [2]; 108 % of control and 113 % of control and 114 % of control under setting [3]; 91 % of control under setting [4].
In the case of `CCCCCCCCCCCCCC[N+]1(CC)CCCCCC1`, the T/C (dose: 0.04 mg/kg/injection, schedule: Q01DX009 (ip), vehicle: saline) was 100 % of control and 96 % of control.
Take `CCCCCCCCCCCCN(C)S(=O)(=O)c1ccc(Cl)c(N)c1`: the T/C runs as follows: (dose: 50.0 mg/kg/injection, schedule: Q04DX003 (ip), vehicle: saline with Tween-80) 95 % of control; (dose: 100.0 mg/kg/injection, schedule: Q04DX003 (ip), vehicle: saline with Tween-80) 100 % of control; (dose: 200.0 mg/kg/injection, schedule: Q04DX003 (ip), vehicle: saline with Tween-80) 95 % of control.
In the case of `Nc1nc2c(c(=O)[nH]1)N(C(=O)CCl)C(CNc1ccc(C(=O)NC(CCC(=O)O)C(=O)O)cc1)CN2` (centres undefined), the T/C is 99 % of control under setting [5]; 103 % of control (dose: 100.0 mg/kg/injection, schedule: Q01DX009 (ip), vehicle: water); 101 % of control (dose: 200.0 mg/kg/injection, schedule: Q01DX009 (ip), vehicle: water).
For `CC1OC(O[C@H]2CC[C@]3(C=O)[C@H]4CC[C@]5(C)[C@@H](C6=COC(=O)C6)CC[C@]5(O)[C@@H]4CC[C@]3(O)C2)C(O)C(O)C1OC1OC(CO)C(O)C(O)C1O` (some centres undefined), the T/C by setting is: (dose: 25.0 mg/kg/injection, schedule: Q01DX005 (ip), vehicle: Klucel (hydroxypropylcellulose) (HPC)) 101 % of control; (dose: 50.0 mg/kg/injection, schedule: Q01DX005 (ip), vehicle: Klucel (hydroxypropylcellulose) (HPC)) 98 % of control.
In the case of `Nc1ccc(-c2nnc(-c3ccc(N)cc3)nn2)cc1`, the T/C is 94 % of control (dose: 100.0 mg/kg/injection, schedule: Q01DX001 (ip), vehicle: saline); 92 % of control (dose: 200.0 mg/kg/injection, schedule: Q01DX001 (ip), vehicle: saline); 95 % of control (dose: 400.0 mg/kg/injection, schedule: Q01DX001 (ip), vehicle: saline).
Turning to `COc1ccc2cc3n(c(=O)c2c1O)CCc1cc2c(cc1-3)OCO2`, the T/C runs as follows: (dose: 0.63 mg/kg/injection, schedule: Q01DX009 (ip), vehicle: distilled water + Tween-80) 101 % of control; (dose: 1.25 mg/kg/injection, schedule: Q01DX009 (ip), vehicle: distilled water + Tween-80) 101 % of control; (dose: 2.5 mg/kg/injection, schedule: Q01DX009 (ip), vehicle: distilled water + Tween-80) 93 % of control; (dose: 5.0 mg/kg/injection, schedule: Q01DX009 (ip), vehicle: distilled water + Tween-80) 108 % of control; (dose: 10.0 mg/kg/injection, schedule: Q01DX009 (ip), vehicle: distilled water + Tween-80) 101 % of control; (dose: 20.0 mg/kg/injection, schedule: Q01DX009 (ip), vehicle: distilled water + Tween-80) 92 % of control.
Turning to `COc1ccc(CSC(=S)Nc2cccc(S(F)(F)(F)(F)F)c2)cc1`, the T/C runs as follows: (dose: 12.5 mg/kg/injection, schedule: Q01DX009 (ip), vehicle: saline with Tween-80) 97 % of control; under setting [1], 104 % of control; (dose: 25.0 mg/kg/injection, schedule: Q01DX009 (ip), vehicle: saline with Tween-80) 100 % of control; under setting [2], 98 % of control; under setting [6], 100 % of control; under setting [3], 100 % of control and 119 % of control. Besides, the T/C is, setting by setting: under setting [4], 116 % of control; under setting [7], 118 % of control.
Turning to `O=C1CSC(=S)N1c1ccc(F)cc1F`, the T/C reads like this: (dose: 50.0 mg/kg/injection, schedule: Q01DX009 (ip), vehicle: suspension in saline) 97 % of control; (dose: 100.0 mg/kg/injection, schedule: Q01DX009 (ip), vehicle: suspension in saline) 100 % of control; (dose: 200.0 mg/kg/injection, schedule: Q01DX009 (ip), vehicle: suspension in saline) 100 % of control.
With `NC(CCC(=O)NCCCC(=O)O)C(=O)O` (centres undefined), the T/C is, setting by setting: (dose: 100.0 mg/kg/injection, schedule: Q04DX002 (ip), vehicle: saline) 105 % of control; (dose: 200.0 mg/kg/injection, schedule: Q04DX002 (ip), vehicle: saline) 113 % of control; (dose: 400.0 mg/kg/injection, schedule: Q04DX002 (ip), vehicle: saline) 108 % of control.
With `O=C(O)CSCC(=O)Nc1cc(C(F)(F)F)ccc1Cl`, the T/C was 95 % of control under setting [8], 100 % of control under setting [9] and 96 % of control under setting [10].
For the molecule `CC12C(=O)OC(=O)C1(C)C1CCC2O1` (centres undefined), the T/C by setting is: (dose: 0.93 mg/kg/injection, schedule: Q01DX005 (ip), vehicle: saline with Tween-80) 109 % of control; (dose: 1.87 mg/kg/injection, schedule: Q01DX005 (ip), vehicle: saline with Tween-80) 102 % of control.
Regarding `CC#CCOCC(O)CO` (centres undefined), the T/C (dose: 12.5 mg/kg/injection, schedule: Q01DX009 (ip), vehicle: water) is 105 % of control; the T/C (dose: 25.0 mg/kg/injection, schedule: Q01DX009 (ip), vehicle: water) was 108 % of control; the T/C under setting [5] was 121 % of control; the T/C (dose: 67.0 mg/kg/injection, schedule: Q01DX009 (ip), vehicle: water) was 120 % of control.
In the case of `COc1cc([C@@H]2c3cc4c(cc3[C@H](O)[C@H]3COC(=O)[C@@H]23)OCO4)cc(OC)c1OC`, the T/C reads like this: (dose: 7.5 mg/kg/injection, schedule: Q01DX010 (ip), vehicle: saline) 109 % of control; (dose: 25.0 mg/kg/injection, schedule: Q04DX003 (ip), vehicle: saline sonified) 95 % of control; (dose: 30.0 mg/kg/injection, schedule: Q01DX010 (ip), vehicle: saline) 172 % of control; (dose: 50.0 mg/kg/injection, schedule: Q04DX003 (ip), vehicle: saline sonified) 112 % of control; (dose: 100.0 mg/kg/injection, schedule: Q04DX003 (ip), vehicle: saline sonified) 154 % of control.
For the molecule `CCCCOC1OCN(CCC)CC1(C)C` (centres undefined), the T/C is, setting by setting: under setting [6], 111 % of control and 113 % of control; (dose: 100.0 mg/kg/injection, schedule: Q01DX009 (ip), vehicle: saline with Tween-80) 122 % of control.
Regarding `CN(C)CC#CCCCS(=O)(=O)c1ccccc1`, the T/C under setting [11] is 97 % of control and the T/C under setting [12] was 99 % of control.
In the case of `Cc1csc(=S)n1O`, the T/C is, setting by setting: under setting [11], 101 % of control; under setting [12], 100 % of control; (dose: 240.0 mg/kg/injection, schedule: Q01DX005 (ip), vehicle: saline) 101 % of control.
Take `CCOC(=O)Cc1csc2nc(-c3ccccc3)cn12`: the T/C under setting [8] was 115 % of control, the T/C under setting [9] is 104 % of control and the T/C under setting [10] is 106 % of control.
For the molecule `O=[N+]([O-])c1cc2c(cc1I)C1C(C3C2C2(Cl)C(Cl)=C(Cl)C3(Cl)C2(Cl)Cl)C2(Cl)C(Cl)=C(Cl)C1(Cl)C2(Cl)Cl` (centres undefined), the T/C is 108 % of control under setting [3], 106 % of control under setting [4] and 106 % of control under setting [7].
Take `N#CC(COC(=O)c1ccccc1)OC(=O)c1ccccc1` (centres undefined): the T/C reads like this: under setting [13], 91 % of control; under setting [14], 95 % of control; under setting [15], 86 % of control.
The corresponding values for `CCCCc1c(O)c(N=NC(N)=S)c2ccccc2c1O` are 95 % of control, 94 % of control and 91 % of control.
